Source: PubChem BioAssay (NCI)
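48-hour exposure; five concentrations; linearly interpolated endpoints. The concentration for 50% growth inhibition is given as GI50. TGI denotes the concentration required for complete inhibition of growth.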

Legend:
Experiment in all cases: inhibition of tumour cell growth, NCI panel, 48 h
A549 NSCLC = test system: A549 NSCLC
COLO 205 colon = test system: COLO 205 colon
MALME-3M melanoma = test system: MALME-3M melanoma
NCI-H460 lung = test system: NCI-H460 lung
OVCAR-5 ovarian = test system: OVCAR-5 ovarian
OVCAR-8 ovarian = test system: OVCAR-8 ovarian
PC-3 prostate = test system: PC-3 prostate
SF-539 CNS = test system: SF-539 CNS
U251 CNS = test system: U251 CNS
SK-MEL-28 melanoma = test system: SK-MEL-28 melanoma

Row | Structure (SMILES) | GI50 (A549 NSCLC) | TGI (A549 NSCLC) | GI50 (COLO 205 colon) | TGI (COLO 205 colon) | GI50 (MALME-3M melanoma) | TGI (MALME-3M melanoma) | GI50 (NCI-H460 lung) | TGI (NCI-H460 lung) | GI50 (OVCAR-5 ovarian) | TGI (OVCAR-5 ovarian) | GI50 (OVCAR-8 ovarian) | TGI (OVCAR-8 ovarian) | GI50 (PC-3 prostate) | TGI (PC-3 prostate) | GI50 (SF-539 CNS) | TGI (SF-539 CNS) | GI50 (U251 CNS) | TGI (U251 CNS) | GI50 (SK-MEL-28 melanoma) | TGI (SK-MEL-28 melanoma)
1 | CCOC(=O)C(Cc1ccc(OC)cc1)C(=O)OCC | 7.01 µM | 33.7 µM | 7.23 µM | 19.7 µM | 9.94 µM | 28 µM | 4.12 µM | 15.1 µM | 11.4 µM | 24.2 µM | 5.24 µM | 32.5 µM | 5.08 µM | 32.4 µM | 2.92 µM | 9.43 µM | 4.79 µM | 17.9 µM |  | 
2 | CCOC(=O)CNC(=O)C(CSC(=O)N(C)O)NC(=O)CCC(N)C(=O)O (stereo not drawn) | > 2000 µM | > 2000 µM | > 2000 µM |  | > 2000 µM | > 2000 µM | > 2000 µM | > 2000 µM |  |  | > 2000 µM | > 2000 µM |  |  |  |  | > 2000 µM | > 2000 µM | > 2000 µM | > 2000 µM
3 | Cc1sc(/N=C2/NC(=O)CS2)nc1-c1nc(/N=C2/NC(=O)CS2)sc1C | > 50 µM | > 50 µM | > 50 µM | > 50 µM |  |  | 23.4 µM | > 50 µM | > 50 µM | > 50 µM | > 50 µM | > 50 µM | 16.8 µM | > 50 µM | > 50 µM | > 50 µM | > 50 µM | > 50 µM | 26.7 µM | > 50 µM
4 | O=P1(O)c2ccccc2CS(=O)(=O)Cc2ccccc21 |  | > 100 µM |  | > 100 µM |  |  |  | > 100 µM |  | > 100 µM |  | > 100 µM |  | > 100 µM |  | > 100 µM |  | > 100 µM |  | > 100 µM
5 | Oc1[nH]c2ccc(Cl)cc2c1/C=c1/ccc2c(c1)N=C(c1cc(F)cc(F)c1)N=2 |  |  | 4.28 µM | > 100 µM | 57.5 µM | > 100 µM |  |  | > 100 µM | > 100 µM |  |  | 3.44 µM | > 100 µM | 8.7 µM | > 100 µM |  |  | 5.06 µM | > 100 µM
6 | COc1cccc(Nc2nccc(Nc3ccc4[nH]ncc4c3)n2)c1 | 1.71 µM | 3.74 µM | 1.57 µM | 3.26 µM |  |  | 1.64 µM | 4.17 µM |  |  | 1.67 µM | 4.39 µM | 1.34 µM | 3.12 µM |  |  | 1.58 µM | 3.18 µM |  | 
7 | O=c1[nH]c2c(O)cccc2c2cc3c(c(O)c12)OCO3 |  | > 100 µM |  | 34.5 µM |  | 56.4 µM |  | 36.6 µM |  |  |  | > 100 µM |  |  |  | 54.4 µM |  | 63.4 µM |  | 
8 | CC(C)[O-].CC(C)[O-].[O-]c1cccc2cccnc12.[O-]c1cccc2cccnc12.[Ti+4] | 41.7 µM | > 100 µM | 24.7 µM | > 100 µM | 25.7 µM | > 100 µM |  |  | 51.1 µM | > 100 µM |  | > 100 µM |  |  | 97 µM | > 100 µM | > 100 µM | > 100 µM | 56.5 µM | > 100 µM
9 | Cc1cc2c(cc1C)[n+]([O-])c(-c1c(Cl)cccc1Cl)c(N)[n+]2[O-] |  | 98.9 µM |  | 38.4 µM |  | 92.3 µM |  | > 100 µM |  | > 100 µM |  | > 100 µM |  |  |  | > 100 µM |  | > 100 µM |  | 89.6 µM
